Experimental data published in US12692265B2, “Solid state forms of Ensifentrine and process for preparation thereof” (ASSIA CHEMICAL INDUSTRIES LTD., priority 2021, dated 2026).

Legend:
Assay type in all cases: physicochemical
[1] = Grinding experiments (strong grinding, solvent drop grinding; XRPD); conditions: for XRPD analysis results: 2 minutes
Method: (§1) X-ray diffraction was performed on X-Ray powder diffractometer: • Bruker D8 Advance; CuKα radiation (λ=1.5418 Å); Lynx eye detector; laboratory temperature 22-25° C.; PMMA specimen holder ring with silicon low background. Prior to analysis, the samples were gently ground by means of mortar and pestle in order to obtain a fine powder. The ground sample was adjusted into a cavity of the sample holder and the surface of the sample was smoothed by means of a cover glass. Measurement Parameters: • Scan range: 2-40 degrees 2-theta; • Scan mode: continuous; • Step size: 0.05 degrees; • Time per step: 0.5 s; • Sample spin: 30 rpm; • Sample holder: PMMA specimen holder ring with silicon low background.
Samples of Ensifentrine ethane-1,2-disulfonate form ES2 were subjected to strong grinding, and to solvent drop grinding in water and ethanol. Grinding was carried out on the samples alone, or in the presence of ethanol or water. In these experiments, about 20 mg of the sample is placed in a mortar and ground with a pestle for 2 minutes. The solvent, when used, as added to the crystalline material before grinding, in a volume of 10 microlitres. XRPD analysis performed on each of the samples after the grinding experiment, confirmed no change in the starting material (Table 3): […]

[2] = Thermal stability (heating, XRPD); conditions: heating up to 100° C. for 30 minutes
Method: as §1
XRPD analysis of the sample confirmed no change in the starting material (Table 4): […]

[3] = Storage stability at different relative humidities and temperatures, 6 months (XRPD)
Method: as §1
Samples of Ensifentrine ethane-1,2-disulfonate form ES2 were subjected to conditions of different relative humidities at different temperatures. XRPD analysis was performed on the samples after 6 months.

Ensifentrine ethane-1,2-disulfonate
XRPD analysis results ([1]; Solvent-drop grinding (ethanol), 10 microlitres): No change | XRPD analysis results ([1]; Solvent-drop grinding (water), 10 microlitres): No change | XRPD analysis results ([1]; Strong grinding, about 20 mg, mortar and pestle): No change | XRPD analysis after the grinding experiment ([1]; each of the samples: alone, with ethanol, with water): no change | XRPD analysis after heating [2]: no change | XRPD analysis results ([3]; 25° C., 60% RH): No change | XRPD analysis results ([3]; 40° C., 75% RH): No change
